Among the data in PubChem BioAssay (NCI) are TGI values, retold here.

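How tested: cells in 96-well plates exposed to compound for 48 hours at five concentrations. Definition used: TGI = concentration required for complete inhibition of growth.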

Test systems include UACC-257 melanoma; HT29 colon; SK-MEL-28 melanoma; HCC-2998 colon; T-47D breast; MCF7 breast; SF-268 CNS; TK-10 renal; MOLT-4 leukemia; IGROV1 ovarian; SW-620 colon; CAKI-1 renal; K-562 leukemia; MDA-N; NCI/ADR-RES ovarian; MALME-3M melanoma; SF-539 CNS; A549 NSCLC; RPMI-8226 leukemia.
Test in all cases: growth of human tumour cells (NCI), 48 h

In the case of `CCOc1cc2c(cc1O)C(N)C[C@@H]1[C@@H]2CC[C@]2(C)[C@@H](O)CC[C@@H]12` (stereo not given in full), the TGI with UACC-257 melanoma, in the test with HT29 colon, in the test with SK-MEL-28 melanoma, in the test on HCC-2998 colon, with T-47D breast and in the test on MCF7 breast was more than 100 µM throughout. Further, the TGI in the test on SF-268 CNS, with TK-10 renal, in the test on MOLT-4 leukemia, with IGROV1 ovarian, in the test on SW-620 colon and in the test with CAKI-1 renal was more than 100 µM in each case. Also, the TGI is 73.2 µM with K-562 leukemia, more than 100 µM in the test with MDA-N and more than 100 µM in the test on NCI/ADR-RES ovarian.

On to `C=CC[C@H](N=C(SC)SC)C(=O)N1C(=O)N(C)[C@@H](C)[C@H]1c1ccccc1`, for which the TGI with UACC-257 melanoma is more than 100 µM; in the test on HT29 colon it was more than 100 µM; in the test with SK-MEL-28 melanoma it was more than 100 µM; in the test with MALME-3M melanoma, more than 100 µM; with SF-539 CNS it was more than 100 µM; in the test with HCC-2998 colon, 92.2 µM. Also, the TGI in the test with T-47D breast, in the test with MCF7 breast, in the test with A549 NSCLC, in the test with SF-268 CNS, with TK-10 renal and in the test with MOLT-4 leukemia was more than 100 µM throughout. The TGI with SW-620 colon, with CAKI-1 renal, in the test on K-562 leukemia, with MDA-N and in the test with NCI/ADR-RES ovarian was more than 100 µM throughout.

Regarding `CC(C)C(NC(=O)C(Cc1ccccc1)NC(=O)[C@H]1CCC[C@H]1NC(=O)C(Cc1ccc(OC(C)(C)C)cc1)NC(=O)OC(C)(C)C)C(N)=O` (stereo not given in full), the TGI in the test with HT29 colon was 53.3 µM; in the test on SK-MEL-28 melanoma, 40 µM; in the test on SF-539 CNS, 33.8 µM; in the test on HCC-2998 colon, 30.5 µM; with T-47D breast, 46.9 µM; with RPMI-8226 leukemia it was more than 100 µM. For the same compound, the TGI in the test with MCF7 breast was 35.9 µM; in the test on A549 NSCLC, 45.5 µM; with SF-268 CNS it was 70 µM; in the test on TK-10 renal, 72 µM; with MOLT-4 leukemia it was 46.5 µM; in the test with IGROV1 ovarian, more than 100 µM. For the same compound, the TGI in the test on SW-620 colon was 51.3 µM; in the test with CAKI-1 renal, more than 100 µM; in the test with K-562 leukemia, 44.4 µM; with MDA-N it was 35 µM; with NCI/ADR-RES ovarian it was more than 100 µM.

Take `CC(NC(=O)C(Cc1ccc(OC(=O)c2ccccc2)cc1)NC(=O)OC(C)(C)C)C(=O)NCC(=O)NC(Cc1ccccc1)C(=O)NN` (stereo not given): the TGI in the test on HT29 colon was more than 100 µM; in the test with SK-MEL-28 melanoma it was more than 100 µM; with MALME-3M melanoma, more than 100 µM; in the test on SF-539 CNS, more than 100 µM; in the test on T-47D breast, more than 100 µM; in the test on RPMI-8226 leukemia it was 38.1 µM. The TGI is more than 100 µM in the test on MCF7 breast; more than 100 µM with A549 NSCLC; more than 100 µM in the test on SF-268 CNS; more than 100 µM with TK-10 renal; 69.4 µM in the test on MOLT-4 leukemia; more than 100 µM in the test with IGROV1 ovarian. Also, the TGI in the test with SW-620 colon is more than 100 µM; with CAKI-1 renal, more than 100 µM; with K-562 leukemia, 76.4 µM; in the test with MDA-N, more than 100 µM; with NCI/ADR-RES ovarian, more than 100 µM.

As for `Cc1ccc(S(=NS(=O)(=O)c2ccc(C)cc2)c2ccc(C)cc2)cc1`, the TGI in the test on UACC-257 melanoma, in the test on HT29 colon, in the test on SK-MEL-28 melanoma, in the test on MALME-3M melanoma, in the test on SF-539 CNS and with T-47D breast was more than 100 µM throughout. The TGI in the test with RPMI-8226 leukemia, in the test on MCF7 breast, in the test with A549 NSCLC, with SF-268 CNS, with TK-10 renal and with SW-620 colon was more than 100 µM in each case. Also, the TGI in the test on K-562 leukemia, with MDA-N and in the test with NCI/ADR-RES ovarian was more than 100 µM throughout.

With `COc1ccc(-n2cnc3c(NC(Cc4ccccc4)C(=O)O)ncnc32)cc1` (stereo not given), the TGI in the test with UACC-257 melanoma, in the test on HT29 colon, in the test with SK-MEL-28 melanoma, with HCC-2998 colon, with T-47D breast and in the test with RPMI-8226 leukemia was more than 100 µM each time. Besides, the TGI in the test with MCF7 breast, with A549 NSCLC, in the test on SF-268 CNS, in the test on TK-10 renal, in the test with IGROV1 ovarian and in the test on SW-620 colon was more than 100 µM in each case. Further, the TGI with CAKI-1 renal, in the test with K-562 leukemia, with MDA-N and in the test on NCI/ADR-RES ovarian was more than 100 µM each time.

`CC(=O)OCC1OC(n2c(-c3ccccc3)c(N=Nc3ccc(C)cc3)c(C)c(C#N)c2=S)C(OC(C)=O)C(OC(C)=O)C1OC(C)=O` (stereo not given): the TGI was more than 100 µM in the test on UACC-257 melanoma; more than 100 µM in the test with HT29 colon; 94.4 µM with SK-MEL-28 melanoma; more than 100 µM in the test on HCC-2998 colon; more than 100 µM with T-47D breast; more than 100 µM with RPMI-8226 leukemia. Besides, the TGI in the test on MCF7 breast is more than 100 µM; in the test on A549 NSCLC, 47 µM; with SF-268 CNS it was 76.6 µM; in the test on TK-10 renal, 47.6 µM; with MOLT-4 leukemia it was 55.2 µM; with SW-620 colon, 11.4 µM. The TGI was 64.5 µM in the test with CAKI-1 renal, more than 100 µM with K-562 leukemia, 74.9 µM with MDA-N and 39.9 µM in the test with NCI/ADR-RES ovarian.

With `CCOC(=O)C(C/C=C/CO)N(C)C(=O)OC(C)(C)C` (stereo not given), the TGI with UACC-257 melanoma, with HT29 colon, in the test on SK-MEL-28 melanoma, with SF-539 CNS, in the test with T-47D breast and in the test with RPMI-8226 leukemia was more than 100 µM each time. Besides, the TGI with MCF7 breast, in the test with A549 NSCLC, in the test on SF-268 CNS, in the test with TK-10 renal, in the test on MOLT-4 leukemia and in the test with IGROV1 ovarian was more than 100 µM each time. Further, the TGI in the test on SW-620 colon, in the test with CAKI-1 renal, in the test on K-562 leukemia, in the test with MDA-N and in the test on NCI/ADR-RES ovarian was more than 100 µM throughout.
